Experiment [1] has as its system viral replication. The note with it: cited from earlier work.
Experiment [2] concerns wild-type WSN-UdM virus. It counts as cell-based, influenza A virus.

Some results are limits rather than exact numbers.

`NC12CC3CC(CC(C3)C1)C2` [amantadine]: in experiment [1], the “concentrations at which the drug selectively inhibits viral replication” value is 0.1 to 5 µM and the “concentrations of nonspecific action (increase in pH of endosomes)” value is reported as greater than 50 μM. For the same compound, the “effect on virus yield and size of plaques” value in experiment [2] was “markedly reduced”.

(Values after patent US8057806B2 (priority 2000, dated 2011).)
